From US20260130857A1, “SUSTAINED-RELEASE INJECTABLE COMPOSITION FOR TREATING OR PREVENTING INFLAMMATORY DISEASE, AND METHOD FOR PREPARING SAME” (INVENTAGE LAB INC., priority 2022, published 2026)

Columns and labels:
[1] = Body weight measurement in MIA-induced osteoarthritis trial; format: in vivo; details: MIA rats, single IA dose: CBD solution 300 ug/joint, Examples 2 and 4 2 mg/joint, Example 3 1 mg/joint; test period
Experimental: (§1) After acclimatization, rats were divided into groups, and the area around the left lower limb knee joint of each rate was shaved clean. Then, MIA (monosodium iodoacetate, Sigma, USA), an osteoarthritis-inducing substance, was prepared at a concentration of 60 mg/mL in 0.9% sterile saline and 50 μL was administered intra-articularly to each rat using a BD Ultra-Fine™ II Insulin Syringe. The right knee joint was administered only the same volume of 0.9% sterile saline. Two weeks after MIA administration, the test substances shown in Table 5 below were administered intra-articularly, and the therapeutic efficacy thereof was evaluated.
(§2) CBD solution and Examples 2 to 4 were each administered to the left knee joint cavity 14 days after MIA administration, and only the same amount of 0.9% sterile saline was administered to the right knee joint. The normal control and positive control groups were also administered the same amount of 0.9% saline.
However, when CBD was administered, it was confirmed that the body weight gain increased compared to that in the positive control as feed intake activity was improved due to a decrease in pain. This tendency was particularly significant in Examples 3 and 4.

[2] = Rat pharmacokinetic test, single subcutaneous injection; set-up: species or system SD rats; details: male, SD, in vivo, CBD solution 300 μg/head, IVL5005 9 mg/head, rat serum, read-out: blood CBD concentration
Excerpt: The experimental conditions for conducting the rat pharmacokinetic test are as follows:
CBD isolate solution was used as a control. As experimental animals, 6-week-old male SD rats were purchased from Coretech, acclimated for a week, and then tested. The experimental diet was a general feed for experimental animals (Orient), and the rats were raised with free access to water and feed.
At a total of 14 time points, including time 0 (before SC administration of the test substance to the acclimated rats) and 4 hr, 8 hr, 24 hr, 3 d, 5 d, 1 w, 2 w, 4 w, 6 w, 8 w, and 12 w after SC administration of the test substance, 500 to 1,000 μL of blood was sampled from the jugular vein at each time point, and then immediately, the blood was centrifuged at 1,000 g for 10 minutes to separate the serum, which was then frozen and stored at −70° C.

[3] = tested on: MIA-OA model; experiment: Paw withdrawal threshold test in osteoarthritis model; format: in vivo, rats; details: thereafter (later than 2 hours after administration)
Experimental: as §1, with “evaluated. […]” for “evaluated.”
The paw withdrawal response was measured before MIA administration (day 0) and 7 days and 14 days after MIA administration (before test drug administration), and the paw withdrawal response was evaluated after applying mechanical stimulation using an electronic von-Frey aesthesiometer (IITC Life Science, USA) 2 hours, 4 hours, 4 days, 7 days, 11 days, 14 days, 21 days, and 28 days after test drug administration. […] In the measurement method, an electronic von-Frey filament was applied perpendicular to the sole of the paw, the threshold (g force) value at which a rapid withdrawal response occurred was measured. The measurement results were analyzed as the ratio of g forces measured on the left and right paws (left/right). […]

[4] = tested on: MIA-OA model; experiment: Trial for treatment of osteoarthritis (OA): weight-bearing and paw withdrawal tests taken together; format: in vivo, rats
Experimental: as §1, §2

## C=C(C)[C@@H]1CCC(C)=C[C@H]1c1c(O)cc(CCCCC)cc1O [CBD solution, Cannabidiol]
[1]
  body weight gain compared to positive control group: tended to increase
[2]; 1 w after single SC
  concentration at 1 w: 361 ng/mL
[2]; 2 w after single SC
  concentration at 2 w: 0 ng/mL
[2]; 4 w after single SC
  concentration at 4 w: 0 ng/mL
[2]; 7 w after single SC
  concentration at 7 w: 0 ng/mL
[2]; 1 d after single SC
  concentration at 1 d: 3940 ng/mL
[3]
  paw withdrawal threshold ratio compared to control group: no difference
[4]; after the early stage / long term (to day 28)
  therapeutic effect compared to the PC group: no difference from the PC group
[4]; early stage of administration
  therapeutic effect compared to the PC group: showed an effect
